The results in this text go back to patent US20240391926A1, “SPIROINDOLINONE COMPOUNDS AS Kv1.3 POTASSIUM SHAKER CHANNEL BLOCKERS” (D.E. Shaw Research, LLC, priority 2021, published 2024).

A value given as a limit tells only on which side of the number the result lay.

One test deals with T1, hERG channel (Homo sapiens, UniProt Q12809).
T1 construct: expressed in transfected cells
Kind of test: hERG electrophysiology, automated whole-cell patch clamp (Patchliner) in CHO-K1 cells stably expressing hERG. Type of test: cell-based. The following applies: 30 nM-100 μM. How it is done:
This assay is used to evaluate the disclosed compounds' inhibition activities against the hERG channel.
CHO-K1 cells stably expressing hERG were grown in Ham's F-12 Medium with glutamine containing 10% heat-inactivated FBS, 1% penicillin/streptomycin, hygromycin (100 μg/ml) and G418 (100 μg/ml). Cells were grown in culture flasks at 37° C. in a 5% CO2-humidified incubator.
The cells were bathed in an extracellular solution containing 140 mM NaCl, 4 mM KCl, 2 mM CaCl2), 1 mM MgCl2, 5 mM Glucose, 10 mM HEPES; pH adjusted to 7.4 with NaOH; 295-305 mOsm. The internal solution contained 50 mM KCl, 10 mM NaCl, 60 mM KF, 20 mM EGTA, 10 mM HEPES; pH adjusted to 7.2 with KOH; 285 mOsm. All compounds were dissolved in DMSO at 30 mM. Compound stock solutions were freshly diluted with external solution to concentrations of 30 nM, 100 nM, 300 nM, 1 μM, 3 μM, 10 μM, 30 μM and 100 μM. The highest content of DMSO (0.3%) was present in 100 μM.
The voltage protocol (see Table B) was designed to simulate voltage changes during a cardiac action potential with a 300 ms depolarization to +20 mV (analogous to the plateau phase of the cardiac action potential), a repolarization for 300 ms to −50 mV (inducing a tail current) and a final step to the holding potential of −80 mV. The pulse frequency was 0.3 Hz. Control (compound-free) and compound pulse trains for each compound concentration applied contained 70 pulses.
Whole-cell current recordings and compound application were enabled by means of an automated patch clamp platform Patchliner (Nanion). EPC 10 patch clamp amplifier (HEKA) along with Patchmaster software (HEKA Elektronik Dr. Schulze GmbH) was used for data acquisition. Data were sampled at 10 kHz without filtering. Increasing compound concentrations were applied consecutively to the same cell without washouts in between.
AUC and PEAK values were obtained with Patchmaster (HEKA Elektronik Dr. Schulze GmbH). To determine IC50 the last single pulse in the pulse train corresponding to a given compound concentration was used. Obtained AUC and PEAK values in the presence of compound were normalized to control values in the absence of compound. Using Origin (OridinLab), IC50 was derived from data fit to Hill equation: Icompound/Icontrol=(100−A)/(1+([compound]/IC50)nH)+A, where IC50 is the concentration at which current inhibition is half-maximal, [compound] is the applied compound concentration, A is the fraction of current that is not blocked and nH is the Hill coefficient.

Another test addresses T2, Kv1.3 potassium channel (Homo sapiens, UniProt P22001).
T2 construct: expressed in transfected cells
Kind of test: Kv1.3 potassium channel blocker activity, automated whole-cell patch clamp (Patchliner) in CHO-K1 cells stably expressing Kv1.3. It is filed as cell-based. The following applies: 30 nM-100 μM. The method in brief:
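Whole-cell automated patch clamp in CHO-K1 cells, pH 7.4 external/7.2 internal; 100 ms steps from −90 to +40 mV at 0.1 Hz, 20-pulse trains. Cumulative 30 nM–100 μM on one cell, ≤10 s per concentration; last-pulse current normalized to control, IC50 from Hill fit.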

T1 sequence (Q12809 whole entry): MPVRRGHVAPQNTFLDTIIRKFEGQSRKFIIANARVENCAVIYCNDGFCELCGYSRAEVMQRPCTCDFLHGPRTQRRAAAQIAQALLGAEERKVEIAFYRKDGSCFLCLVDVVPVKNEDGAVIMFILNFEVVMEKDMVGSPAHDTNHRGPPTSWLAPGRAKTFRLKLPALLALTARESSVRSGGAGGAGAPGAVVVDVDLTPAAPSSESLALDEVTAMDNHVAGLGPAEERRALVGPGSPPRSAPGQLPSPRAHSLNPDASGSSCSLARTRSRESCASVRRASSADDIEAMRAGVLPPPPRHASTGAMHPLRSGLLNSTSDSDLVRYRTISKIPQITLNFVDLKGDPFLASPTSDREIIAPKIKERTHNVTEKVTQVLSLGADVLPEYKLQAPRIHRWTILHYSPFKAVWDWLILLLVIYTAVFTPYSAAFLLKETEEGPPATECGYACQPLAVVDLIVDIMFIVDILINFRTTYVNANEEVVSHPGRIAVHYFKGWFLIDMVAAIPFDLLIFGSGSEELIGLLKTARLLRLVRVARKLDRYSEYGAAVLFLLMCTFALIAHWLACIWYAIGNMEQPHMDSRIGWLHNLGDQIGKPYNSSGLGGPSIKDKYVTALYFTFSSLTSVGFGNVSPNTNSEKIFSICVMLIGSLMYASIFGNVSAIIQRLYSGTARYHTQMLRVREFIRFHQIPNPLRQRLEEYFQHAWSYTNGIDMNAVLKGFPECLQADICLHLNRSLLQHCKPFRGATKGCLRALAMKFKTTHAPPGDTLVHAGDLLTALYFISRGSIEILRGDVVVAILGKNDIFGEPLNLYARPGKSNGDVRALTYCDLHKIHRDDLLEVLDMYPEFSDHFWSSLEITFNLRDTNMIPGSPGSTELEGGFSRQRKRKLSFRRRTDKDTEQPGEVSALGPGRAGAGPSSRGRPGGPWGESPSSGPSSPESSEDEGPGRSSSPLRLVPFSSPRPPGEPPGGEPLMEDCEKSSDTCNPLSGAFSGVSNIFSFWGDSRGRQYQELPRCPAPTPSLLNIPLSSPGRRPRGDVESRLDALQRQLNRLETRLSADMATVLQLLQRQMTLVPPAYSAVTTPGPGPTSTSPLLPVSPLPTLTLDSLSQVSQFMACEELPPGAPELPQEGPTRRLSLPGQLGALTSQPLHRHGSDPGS
T2 sequence (P22001 whole entry): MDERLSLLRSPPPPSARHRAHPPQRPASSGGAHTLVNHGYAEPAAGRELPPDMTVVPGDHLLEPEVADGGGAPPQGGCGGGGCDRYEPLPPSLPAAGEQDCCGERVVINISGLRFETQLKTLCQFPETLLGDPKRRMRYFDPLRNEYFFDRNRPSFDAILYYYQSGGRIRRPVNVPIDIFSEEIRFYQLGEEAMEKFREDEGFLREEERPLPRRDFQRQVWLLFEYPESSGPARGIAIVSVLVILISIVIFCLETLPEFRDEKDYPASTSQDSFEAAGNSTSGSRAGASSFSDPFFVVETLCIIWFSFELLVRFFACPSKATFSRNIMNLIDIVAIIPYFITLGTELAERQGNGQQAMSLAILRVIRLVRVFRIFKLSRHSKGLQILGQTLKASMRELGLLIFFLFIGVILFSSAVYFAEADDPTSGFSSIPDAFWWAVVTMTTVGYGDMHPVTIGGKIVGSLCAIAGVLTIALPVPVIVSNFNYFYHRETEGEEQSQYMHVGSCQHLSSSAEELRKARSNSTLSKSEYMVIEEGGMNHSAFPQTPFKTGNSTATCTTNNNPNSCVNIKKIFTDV

Broadly, the IC50 is the concentration at which inhibition is half-maximal. Read a low IC50 as greater potency in that assay. `NCC(=O)N1CC[C@]2(C1)C(=O)Nc1cc(Cl)c(Cl)cc12` [Compound 5, (S)-5,6-dichloro-1′-glycylspiro[indoline-3,3′-pyrrolidin]-2-one]: the IC50 against hERG channel was greater than 30 µM; against Kv1.3 potassium channel, less than 1 µM.
`C[C@@H](O)C(=O)N1CC[C@]2(C1)C(=O)Nc1cc(Cl)c(Cl)cc12` [Compound 13, (S)-5,6-dichloro-1′-((R)-2-hydroxypropanoyl)spiro[indoline-3,3′-pyrrolidin]-2-one]: the IC50 was greater than 100 µM against hERG channel and less than 1 µM at Kv1.3 potassium channel.
Turning to `O=C(N1CC[C@]2(C1)C(=O)Nc1cc(Cl)c(Cl)cc12)C1(F)CCNC1` (single isomer, unassigned; isomer 1) [Compound 29], the half-inhibitory concentration (IC50) on hERG channel was greater than 3 µM; on Kv1.3 potassium channel, less than 0.3 µM.
Consider `C[C@@H]1NCC[C@H]1C(=O)N1CC[C@]2(C1)C(=O)Nc1cc(Cl)c(Cl)cc12` (single isomer, unassigned; isomer 1) [Compound 39], for which the IC50 against hERG channel is greater than 100 µM; against Kv1.3 potassium channel, less than 0.3 µM.
The matching figures for `O=C(c1ccnc(CO)c1)N1CC[C@]2(C1)C(=O)Nc1cc(Cl)c(Cl)cc12` [Compound 67, (S)-5,6-dichloro-1′-(2-(hydroxymethyl)isonicotinoyl)spiro[indoline-3,3′-pyrrolidin]-2-one]: greater than 100 µM and less than 1 µM.
As for `O=C([C@@H]1CCNC1)N1CC[C@]2(C1)C(=O)Nc1cc(Cl)c(Cl)cc12` [Compound 14, (S)-5,6-dichloro-1′-((R)-pyrrolidine-3-carbonyl)spiro[indoline-3,3′-pyrrolidin]-2-one], the 50% inhibitory concentration (IC50) on hERG channel is greater than 100 µM; on Kv1.3 potassium channel, less than 0.3 µM.
The matching figures for `O=C(CO)N1CC[C@]2(C1)C(=O)Nc1c2cc(Cl)c(Cl)c1Cl` [Compound 121, (3S)-5,6,7-trichloro-1′-(2-hydroxyacetyl)-1H-spiro[indole-3,3′-pyrrolidin]-2-one]: greater than 10 µM and less than 0.3 µM.
Take `O=C(C1CCNCC1)N1CC[C@]2(C1)C(=O)Nc1cc(Cl)c(Cl)cc12` [Compound 21, (S)-5,6-dichloro-1′-(piperidine-4-carbonyl)spiro[indoline-3,3′-pyrrolidin]-2-one]: the half-inhibitory concentration (IC50) is greater than 100 µM on hERG channel and less than 1 µM on Kv1.3 potassium channel.
